The values below come from US9061981B2, “Diphenyl substituted cyclohexane derivatives, useful as modulators of the estrogen receptors beta” (Acadia Pharmaceuticals Inc., priority 2011, dated 2015).

The target of series [1] is T1, ERα (Homo sapiens, UniProt P03372).
T1 sequence (P03372 1-595): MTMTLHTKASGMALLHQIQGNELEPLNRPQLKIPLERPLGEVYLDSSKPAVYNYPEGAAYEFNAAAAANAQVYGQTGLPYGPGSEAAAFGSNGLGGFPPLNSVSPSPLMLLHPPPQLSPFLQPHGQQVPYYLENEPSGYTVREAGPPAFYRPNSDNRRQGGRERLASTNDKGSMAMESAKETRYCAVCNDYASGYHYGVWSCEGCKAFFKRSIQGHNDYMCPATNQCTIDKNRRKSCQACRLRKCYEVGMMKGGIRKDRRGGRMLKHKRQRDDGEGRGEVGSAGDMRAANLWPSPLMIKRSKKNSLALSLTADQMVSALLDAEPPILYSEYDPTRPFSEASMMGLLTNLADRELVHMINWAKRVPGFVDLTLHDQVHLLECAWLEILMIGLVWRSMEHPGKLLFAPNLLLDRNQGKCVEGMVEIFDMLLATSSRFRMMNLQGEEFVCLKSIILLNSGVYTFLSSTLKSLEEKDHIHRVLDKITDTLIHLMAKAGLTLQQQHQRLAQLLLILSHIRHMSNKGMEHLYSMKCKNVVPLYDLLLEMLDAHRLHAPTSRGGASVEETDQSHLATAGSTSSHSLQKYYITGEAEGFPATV
In words: Luciferase reporter gene assay (3*ERE) in HEK293 cells, ERα. Type of series: cell-based. Further details: expressed in transfected cells; host or cells: transient transfection. To be noted: 48 hours; for EC50: na = not active, read-out: Luciferase Erα pEC50 (converted). The protocol:
(§1) HEK293 cells were grown to 70% confluency in DMEM containing 10% calf serum (Hyclone) prior to transfection. On the day of transfection (day 1), expression vectors for ERα or ERβ were cotransfected along a construct containing a synthetic 3*ERE upstream of the luciferase gene (Panomics), using Polyfect (Qiagen) per manufacturer's recommendations (ERE being estrogen response element). Sixteen hours post-transfection, cells were incubated in serum free DMEM. […] Cells extracts were then obtained by lyzing and the Luciferase activity measured, all of these steps performed using a commercially available kit (Promega).
In general terms: In a reporter assay the amount or activity of a reporter protein is the signal.

Series [2] concerns the target T2, ERβ (Homo sapiens, UniProt Q92731). The series can be described thus: R-SAT functional assay, ERβ. It counts as cell-based. Further details: expressed in transfected cells; host or cells: transient transfection.
The target of series [3] is T2, ERβ. In words: Luciferase reporter gene assay (3*ERE) in HEK293 cells, ERβ. It counts as cell-based. Further details: expressed in transfected cells; host or cells: HEK293 cells, transient transfection. Particulars: for Emax: read-out: Luciferase Erβ % Eff. The protocol: as §1
Series [4] deals with T2, ERβ. The series can be described thus: R-SAT functional assay, ERβ. Type of series: cell-based. Further details: expressed in transfected cells; host or cells: transient transfection. The text has this:
(§2) R-SAT® (Receptor Selection and Amplification Technology) is a cell-based functional assay that allows one to monitor receptor-dependent proliferative responses and has been described elsewhere. […] This process is achieved by partial cellular transformation via loss of contact inhibition and growth factor dependency. Monitoring is achieved by transfecting the cells with a β-galactosidase reporter gene vector whose expression is under a constitutively active promoter. Briefly, NIH-3T3 fibroblasts were plated overnight in 96-wells plates in DMEM 10% calf serum (Hyclone) and grown to 60-70% confluency prior to transfection. Transient transfections were performed using Polyfect (Qiagen) according to manufacturer's instructions. Typically a transfection mix would consist of the receptor and the β-galactosidase expression vectors. Sixteen hours post-transfection, cells were incubated with different doses of ligand in DMEM containing 30% Ultraculture (Hyclone) and 0.4% calf serum (Hyclone) to generate a dose response curve. […] Plates were read using a microplate reader at 420 nm. Data from R-SAT® assays were fit to the equation: r=A+B(x/(x+c)), where A=minimum response, B=maximum response minus minimum response, c=EC50, r=response, and x=concentration of ligand. Curves were generated using the curve fitting softwares Excel Fit and GraphPad Prism (San Diego, Calif.). Luciferase Reporter Gene Assay
This is another data set of the same source.

Series [5] in a line: Microsomal bioavailability (Table 2). It counts as in vitro ADME. To be noted: read-out: Microsomal bioavailability F (%).
The target in series [6] is T2, ERβ. In words: Competitive 3H-estradiol binding assay, ERβ. Further details: expressed in transfected cells; host or cells: HEK293 cells, transient transfection. As for the experimental part: (§3) Cells were then harvested by scraping in ice-cold PBS and subsequently lysed using a cold buffer containing 10 mM Tris pH 7.4, 1 mM EDTA, 1 mM DTT before being subjected to polytron twice for 10 seconds. Cytosolic extracts were isolated by centrifugation at 15000 g for 30 minutes at 4° C. Competitive binding of the test compounds or the estradiol control was performed on 20 μL extract by overnight incubation at 4° C. in a total volume of 100 μL containing 1 nM ^3H-estradiol (Perkin Elmer, Boston, Mass.). The bound fraction was separated from the unbound one by the addition of 100 μL of Dextran coated charcoal, incubated for 10 minutes and subsequent centrifugation at 1000 rpm for 10 minutes. Samples (100 μL per sample) were then analyzed by liquid scintillation. Data was then analyzed using the curve fitting software GraphPad Prism.

Series [7] concerns the target T1, ERα. The series can be described thus: Competitive 3H-estradiol binding assay, ERα. To be noted: 1 nM 3H-estradiol, HEK293T cytosolic extract; read-out: Binding ERα pKi (converted). The protocol:
as §3, with “HEK293T cells were transiently transfected for 48 hours with expression vectors encoding ERα or ERβ, before being serum starved for 4-6 hours. Cells” for “Cells”

The target of series [8] is T1, ERα. In words: R-SAT functional assay, ERα. It counts as cell-based. Further details: expressed in transfected cells; host or cells: NIH-3T3 fibroblasts, transient transfection. To be noted: NIH-3T3 cells; for EC50: na = not active, read-out: R-SAT Erα pEC50 (converted).
Excerpt: as §2

A short description of series [9]: Metabolic stability in liver microsomes, human. Type of series: in vitro ADME. To be noted: low value = metabolically stable. As for the experimental part:
(§4) Also the metabolic stability in liver microsomes was tested for some compounds.
Background: Liver microsomes are a subcellular fraction often used to study metabolism.

Series [10] in a line: Metabolic stability in liver microsomes, rat. It counts as in vitro ADME. Particulars: low value = metabolically stable. The protocol:
as §4

The subject of the next series is Taxol-induced allodynia. In words: Taxol-induced neuropathy model. It counts as in vivo, male SD rats. To be noted: for effect on Taxol-induced allodynia: s.c. (gabapentin i.p.), Compound 8 at 10 and 30 mg/kg, 2 hours post-dose. The protocol:
Neuropathy was induced in male SD rats by 4×1 mg/kg consecutive daily doses of taxol as described (Naguib M, Diaz P, Xu J J, Astruc-Diaz F, Craig S, Vivas-Mejia P, Brown D L. MDA7: a novel selective agonist for CB2 receptors that prevents allodynia in rat neuropathic pain models. Br J. Pharmacol. 2008 December; 155(7):1104-16). The presence of tactile allodynia (von Frey filament 50% response threshold of <5 g) was confirmed prior to inclusion in the study. Drugs were administered sub-cutaneously (s.c.) except gabapentin was given intra-peritoneally (i.p.). Doses are given in mg/kg. * p<0.05.
Allodynia was assessed by applying a light tactile stimulus (Von Frey hairs) to the plantar surface of the surgical paw until the 50% threshold was established. A positive response was recorded if the paw was sharply withdrawn. Eight VonFrey hairs were used (3.61, 3.84, 4.08, 4.31, 4.56, 4.74, 4.93 and 5.18). MPE (%) was calculated as [(Rdrug−Rveh)/(Rsham−Rveh)]*100% where Rveh was 4 and Rsham was 13. Repeat dosing (FIG. 10C) was performed by administering the indicated doses of Compound 8 once daily via the s.c. route. Efficacy was measured 2 hours post-dose.

Series [11] in a line: Unidirectional permeability across MatTek EpiOral buccal tissue. Type of series: in vitro ADME, human. To be noted: test compound 10 μM co-dosed with controls atenolol and caffeine 100 μM, DPBS pH 7.4, 37° C. The protocol: EpiOral→tissues plated in 24-well plates were obtained from MatTek Corporation (Ashland, Mass., USA). The assay buffer was Dulbeccos' Phosphate Buffered Saline (DPBS) without Ca & Mg chloride, pH 7.4. Each test compound was co-dosed with the two control compounds. Targeting dosing concentrations were 10 μM for each test compound and 100 μM for the two control compounds. Prior to the permeability assay onset, the tissues were preequilibrated in a pre-warmed EpiOral assay medium for one hour at 37° C. in a 5% CO2 incubator. The EpiOral assay medium was aspirated after the pre-equilibration, and the tissues were washed twice with the DPBS buffer. The receiver chambers were filled with 0.75 mL of the DPBS buffer, while the donor chambers received 0.4 mL of the dosing solutions. The assay plates were placed at 37° C. in a 5% CO2 incubator. The receiver samples (200 μL) were collected at 30, 60, and 120 minutes, and replaced with an equal volume of fresh pre-warmed receiver buffer (except for the last time point of 120 minutes). The donor sides were sampled at 0 and 120 minutes. The test compounds were then analyzed using LC-MS/MS.

Where [12] appears, read: NIH3T3, NIH-3T3 cells, read-out: R-SAT Erβ % Eff.
Where [13] appears, read: NIH3T3, read-out: R-SAT Erβ % Eff.

Where “and” joins values, the source holds several entries; their conditions need not be identical. Equal entries are not always repeated.

T2 sequence (Q92731 whole entry, species assumed): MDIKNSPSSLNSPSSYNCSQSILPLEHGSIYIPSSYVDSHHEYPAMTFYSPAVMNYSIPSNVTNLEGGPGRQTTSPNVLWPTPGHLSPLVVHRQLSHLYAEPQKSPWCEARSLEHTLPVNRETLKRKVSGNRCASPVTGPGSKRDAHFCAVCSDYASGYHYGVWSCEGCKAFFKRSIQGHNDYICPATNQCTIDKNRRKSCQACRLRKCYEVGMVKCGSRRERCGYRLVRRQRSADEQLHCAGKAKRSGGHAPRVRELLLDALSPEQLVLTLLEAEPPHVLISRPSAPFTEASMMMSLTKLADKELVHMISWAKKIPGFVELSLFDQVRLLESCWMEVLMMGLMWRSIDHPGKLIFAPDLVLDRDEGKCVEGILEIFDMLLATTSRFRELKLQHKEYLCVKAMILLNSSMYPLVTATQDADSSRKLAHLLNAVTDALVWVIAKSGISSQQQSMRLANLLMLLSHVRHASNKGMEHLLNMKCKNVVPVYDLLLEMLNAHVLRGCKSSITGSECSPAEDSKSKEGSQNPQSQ

As to `Oc1ccc(C2(c3ccccc3Cl)CCCCC2)cc1` [Compound 558], the “Luciferase Erα % Eff” value on ERα [1] came to 37%. The EC50 on ERα [1] is 1580 nM; at ERβ [2] it was 6.31 nM; at ERβ [3], 2.51 nM; on ERα [8], 1260 nM. The Emax at ERβ [3] (HEK293 cells, 48 hours) stood at 101%; on ERβ [4] (setting [12]), 73%. In addition, the Microsomal bioavailability (predicted from microsomes) in series [5] is 2%. The figures for the Ki on ERβ [6] and on ERα [7] were 50.1 nM and 1000 nM, respectively. The “R-SAT Erα % Eff” value at ERα [8] is 48%.
As to `Oc1ccc(C2(c3ccccc3F)CCC(F)(F)CC2)cc1F` [Compound 10, 4-(4,4-Difluoro-1-(2-fluorophenyl)cyclohexyl)-2-fluorophenol], the “Luciferase Erα % Eff” value on ERα [1] came out at 2%. Besides, the microsomal CLint (as a rule, a measure of how fast metabolising enzymes remove a compound, apart from limits set by blood flow) in series [9] is 11 µL/min/mg; in series [10], 95 µL/min/mg. The EC50 is 2.51 nM on ERβ [2], 2 nM on ERβ [3] and 1000 nM on ERα [8]. In addition, the Emax on ERβ [3] (HEK293, 48 h) worked out at 55%; on ERβ [4] (setting [13]), 57%. Besides, the figures for the Ki on ERβ [6] and on ERα [7] were 5.01 nM and 251 nM, respectively. Further, the “R-SAT Erα % Eff” value on ERα [8] stood at 100%.
Take `NCC1(CC(=O)O)CCCCC1` [gabapentin]: the “maximum effect (MPE)” value with Taxol-induced allodynia (gabapentin i.p.) was 39%. For the same compound, in the series with Taxol-induced allodynia, the “effect on Taxol-induced allodynia” value is given as “relatively ineffective”.
Turning to `Oc1ccc(C2(c3ccccc3Cl)CCC(F)(F)CC2)cc1F` [Compound 14], on ERα [1], the “Luciferase Erα % Eff” value worked out at 82%. The EC50 was 1.58 nM at ERβ [2], 0.631 nM on ERβ [3] and 100 nM at ERα [8]. The Emax amounted to 52% on ERβ [3] (HEK293, 48 h) and 60% at ERβ [4] (setting [13]). The microsomal CLint in series [10] amounted to 113 µL/min/mg. Also, the Ki at ERβ [6] was 3.98 nM; on ERα [7] it was 50.1 nM. The “R-SAT Erα % Eff” value on ERα [8] is 145%.
With `N#CC(Cc1ccc(O)cc1)c1ccc(O)cc1` (stereo not drawn) [DPN], the “effect on Taxol-induced allodynia” value with Taxol-induced allodynia was “active”.
As to `Oc1ccc(C2(c3ccccc3Cl)CCC(F)(F)CC2)cc1` [Compound 12], the “Luciferase Erα % Eff” value at ERα [1] is 30%. Also, the EC50 at ERβ [2] was 3.16 nM; at ERβ [3], 0.631 nM. Besides, the Emax on ERβ [3] (HEK293 cells, 48 hours) was found to be 74%; at ERβ [4] (setting [12]), 42%. Also, the microsomal CLint in series [10] is 147 µL/min/mg. Also, the Ki is 3.98 nM on ERβ [6] and 100 nM at ERα [7]. In addition, at ERα [8], the “R-SAT Erα % Eff” value was 74%.
As to `Cn1c(=O)c2c(ncn2C)n(C)c1=O` [caffeine], the “apparent permeability coefficient (Papp) across MatTek EpiOral buccal tissues” value in [11] was 2.75e-05 cm/s and 2.23e-05 cm/s.
`COc1ccc(C2(c3ccccc3F)CCC(F)(F)CC2)cc1` [Compound 9, 1-(4,4-Difluoro-1-(4-methoxyphenyl)cyclohexyl)-2-fluorobenzene]: the Microsomal bioavailability (predicted from microsomes) in series [5] is 19.6%.
As for `Oc1ccc(C2(c3ccccc3F)CCCCC2)cc1` [Compound 152], on ERα [1], the “Luciferase Erα % Eff” value is given as 48%. The EC50 at ERα [1] was 3980 nM; at ERβ [2] it was 12.6 nM; on ERβ [3] it was 20 nM; on ERα [8], 1580 nM. In addition, the microsomal CLint stood at 27 µL/min/mg in series [9] and 405 µL/min/mg in [10]. The Emax at ERβ [3] (HEK293 cells, 48 hours) was 126%; at ERβ [4] (setting [12]), 69%. At ERβ [6], this compound gave a Ki of 63.1 nM. The “R-SAT Erα % Eff” value on ERα [8] came out at 29%.
